These results are taken from patent US11220510B2, “Pyrrole tricyclic compounds as A2A / A2B inhibitors” (Incyte Corporation, priority 2018, dated 2022).

For assay [1], the target named is human adenosine A2B receptor (Homo sapiens (Human), UniProt P29275). The assay is described as follows: Adenosine A2B Receptor Cyclic AMP GS Assay. To be noted: HEK-293 cells expressing human A2B; agonist NECA 12 nM; cAMP accumulation by FRET; read-out: A2B_cAMP_EC50. The format is cell-based. The method, then:
Example B. Adenosine A2B Receptor Cyclic AMP GS Assay Stably transfected HEK-293 cells expressing the human adenosine A2B receptor (Perkin Elmer) were maintained in MEM culture medium with 10% FBS and 100 μg/ml Geneticin (Life Technologies). 18 to 24 hours prior to assay, geneticin was removed from culture. The cisbio cAMP-GS Dynamic kit utilizing the FRET (Fluorescence Resonance Energy Transfer) technology was used to measure cAMP accumulation in the cells. Compounds of the present disclosure at an appropriate concentration were mixed with 10000 cells/well in white 96 well half area plates (Perkin Elmer) for 30 min at room temperature gently shaking. Agonist, NECA (R&D Technologies) at 12 nM was added to each well for 60 min at room temperature gently shaking. Detection reagents, d2-labeled cAMP (acceptor) and anti-cAMP cryptate (donor) were added to each well for 60 min at RT gently shaking. Plates were read on Pherastar (BMG Labtech), fluorescence ratio 665/620 was calculated and EC50 determination was performed by fitting the curve of percent of control versus the log of the compound concentration using GraphPad Prism.

In assay [2] the target is Adenosine A2A receptor (Tag-lite Adenosine A2A labeled cells) (Homo sapiens (Human), UniProt P29274). The assay is described as follows: A2A Tag-lite HTRF assay (fluorescent ligand displacement). The conditions noted are these: Red antagonist fluorescent ligand 12.5 nM, one-site competitive binding model, read-out: A2A_Ki. The text has this: Example C. A2A Tag-Lite® HTRF Assay
Chain of Adenosine A2A receptor (Tag-lite Adenosine A2A labeled cells) (P29274 whole entry): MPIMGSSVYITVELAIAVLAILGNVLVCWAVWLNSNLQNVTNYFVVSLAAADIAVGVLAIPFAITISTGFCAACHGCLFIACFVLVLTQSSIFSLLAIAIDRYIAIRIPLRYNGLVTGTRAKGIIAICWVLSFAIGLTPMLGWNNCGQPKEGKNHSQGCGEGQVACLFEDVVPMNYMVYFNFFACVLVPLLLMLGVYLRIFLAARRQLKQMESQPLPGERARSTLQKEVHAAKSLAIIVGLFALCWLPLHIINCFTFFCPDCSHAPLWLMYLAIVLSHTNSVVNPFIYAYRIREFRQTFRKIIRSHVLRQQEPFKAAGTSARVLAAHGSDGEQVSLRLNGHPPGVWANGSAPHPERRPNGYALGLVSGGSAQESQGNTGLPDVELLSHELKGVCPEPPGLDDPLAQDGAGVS
The final concentration of DMSO was 1%.
In general terms: TR-FRET usually uses a lanthanide donor and a delayed reading to cut background.

Each structure is given as a SMILES string.

Chain of human adenosine A2B receptor (P29275 whole entry): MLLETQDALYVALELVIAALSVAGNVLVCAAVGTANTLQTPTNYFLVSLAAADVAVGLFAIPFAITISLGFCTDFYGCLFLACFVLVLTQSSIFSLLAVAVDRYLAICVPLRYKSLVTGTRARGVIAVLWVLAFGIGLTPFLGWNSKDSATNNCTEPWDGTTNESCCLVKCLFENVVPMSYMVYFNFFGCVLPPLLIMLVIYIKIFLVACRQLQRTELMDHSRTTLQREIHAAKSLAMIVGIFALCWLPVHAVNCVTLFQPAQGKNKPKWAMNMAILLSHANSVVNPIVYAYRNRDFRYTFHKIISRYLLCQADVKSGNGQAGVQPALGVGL

Consider `CCCCCn1c2cc(-c3cnn(Cc4cncc(Cl)c4)c3)[nH]c2c(=O)n2c(C)nnc12` [Example 2, 7-(1-((5-Chloropyridin-3-yl)methyl)-1H-pyrazol-4-yl)-3-methyl-9-pentyl-6,9-dihydro-5H-pyrrolo[3,2-d][1,2,4]triazolo[4,3-a]pyrimidin-5-one], for which the EC50 in assay [1] fell in the range of 10 to 100 nM. Besides, in assay [2], the Ki was less than 10 nM.

As for `CCCCCn1c2cc(-c3cnn(Cc4cccnc4)c3)[nH]c2c(=O)n2c(C)nnc12` [Example 8, 3-Methyl-9-pentyl-7-(1-(pyridin-3-ylmethyl)-1H-pyrazol-4-yl)-6,9-dihydro-5H-pyrrolo[3,2-d][1,2,4]triazolo[4,3-a]pyrimidin-5-one], the EC50 in assay [1] fell in the range of 10 to 100 nM. The Ki in assay [2] was less than 10 nM.

`CCCCn1c2cc(-c3cnn(C4CN(c5ncc(F)c(N)n5)C4)c3)[nH]c2c(=O)n2c(C)nnc12` [Example 29, 7-(1-(1-(4-Amino-5-fluoropyrimidin-2-yl)azetidin-3-yl)-1H-pyrazol-4-yl)-9-butyl-3-methyl-6,9-dihydro-5H-pyrrolo[3,2-d][1,2,4]triazolo[4,3-a]pyrimidin-5-one]: in assay [1], the EC50 is 10 to 100 nM. The Ki in assay [2] is less than 10 nM.

`CCCCCn1c2cc(-c3cnn(C4CN(c5nccc(NCCO)n5)C4)c3)[nH]c2c(=O)n2c(C)nnc12` [Example 22, 7-(1-(1-(4-(2-Hydroxyethylamino)pyrimidin-2-yl)azetidin-3-yl)-1H-pyrazol-4-yl)-3-methyl-9-pentyl-6,9-dihydro-5H-pyrrolo[3,2-d][1,2,4]triazolo[4,3-a]pyrimidin-5-one]: in assay [1], the EC50 was in the range of 10 to 100 nM. In assay [2], the Ki is less than 10 nM.

`CCCCCn1c2cc(-c3cnn(C4CN(c5nccc(N)n5)C4)c3)[nH]c2c(=O)n2c(C)nnc12` [Example 21, 7-(1-(1-(4-Aminopyrimidin-2-yl)azetidin-3-yl)-1H-pyrazol-4-yl)-3-methyl-9-pentyl-6,9-dihydro-5H-pyrrolo[3,2-d][1,2,4]triazolo[4,3-a]pyrimidin-5-one]: in assay [1], the EC50 is 10 to 100 nM. Moreover, in assay [2], the Ki was less than 10 nM.
